The source of these data is publication PMC10004634 (PLOS ONE, 2023).

Like-named read-outs stand apart in the source and are kept apart here.

Among the targets are ERBB2 (Homo sapiens, UniProt P04626); PDGFRA (Homo sapiens, UniProt P16234); PLK3 (Homo sapiens, UniProt Q9H4B4); LIMK1 (Homo sapiens, UniProt P53667).
Holding throughout (assay): biochemical
Design in all cases: KINOMEscan scanMAX competition binding, DNA-tagged kinases, qPCR read-out, percent control at 300 nM
A general note: Quantitative PCR measures a nucleic acid by following its amplification.

The next experiment concerns the target T1, LZK (Homo sapiens, UniProt O43283).
T1 construct: gene MAP3K13
T1 sequence (O43283 1-966): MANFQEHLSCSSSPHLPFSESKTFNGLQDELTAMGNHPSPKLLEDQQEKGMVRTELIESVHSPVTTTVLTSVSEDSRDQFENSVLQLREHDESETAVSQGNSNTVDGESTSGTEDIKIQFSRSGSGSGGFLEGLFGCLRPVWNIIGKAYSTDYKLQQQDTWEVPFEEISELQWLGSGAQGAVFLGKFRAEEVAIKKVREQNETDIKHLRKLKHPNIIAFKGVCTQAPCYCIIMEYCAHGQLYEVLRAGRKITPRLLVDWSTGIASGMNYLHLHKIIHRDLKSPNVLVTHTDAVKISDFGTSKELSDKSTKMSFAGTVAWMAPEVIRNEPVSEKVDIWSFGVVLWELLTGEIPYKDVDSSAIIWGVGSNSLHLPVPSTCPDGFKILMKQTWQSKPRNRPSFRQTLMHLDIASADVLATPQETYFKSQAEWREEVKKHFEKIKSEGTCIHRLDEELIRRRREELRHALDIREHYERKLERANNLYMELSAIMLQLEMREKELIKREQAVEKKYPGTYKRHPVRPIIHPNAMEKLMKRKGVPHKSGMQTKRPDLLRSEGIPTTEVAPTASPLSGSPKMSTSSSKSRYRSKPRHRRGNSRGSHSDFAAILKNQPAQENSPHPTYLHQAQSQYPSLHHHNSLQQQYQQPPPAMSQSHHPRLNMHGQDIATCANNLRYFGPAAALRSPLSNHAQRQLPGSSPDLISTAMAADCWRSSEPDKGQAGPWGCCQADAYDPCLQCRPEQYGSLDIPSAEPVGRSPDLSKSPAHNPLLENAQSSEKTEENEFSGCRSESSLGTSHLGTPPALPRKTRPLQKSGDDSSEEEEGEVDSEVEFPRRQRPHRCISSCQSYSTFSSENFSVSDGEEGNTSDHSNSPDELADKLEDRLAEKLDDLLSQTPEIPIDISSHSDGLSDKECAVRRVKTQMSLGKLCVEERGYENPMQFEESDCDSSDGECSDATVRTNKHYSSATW

The target in experiment [1] is T2, ABL1(H396P)-phosphorylated (Homo sapiens, UniProt P00519, H396P).
T2 construct: phosphorylated

The target of a further experiment is T3, p38-delta (Homo sapiens, UniProt O15264).
T3 construct: gene MAPK13
T3 sequence (O15264 1-365): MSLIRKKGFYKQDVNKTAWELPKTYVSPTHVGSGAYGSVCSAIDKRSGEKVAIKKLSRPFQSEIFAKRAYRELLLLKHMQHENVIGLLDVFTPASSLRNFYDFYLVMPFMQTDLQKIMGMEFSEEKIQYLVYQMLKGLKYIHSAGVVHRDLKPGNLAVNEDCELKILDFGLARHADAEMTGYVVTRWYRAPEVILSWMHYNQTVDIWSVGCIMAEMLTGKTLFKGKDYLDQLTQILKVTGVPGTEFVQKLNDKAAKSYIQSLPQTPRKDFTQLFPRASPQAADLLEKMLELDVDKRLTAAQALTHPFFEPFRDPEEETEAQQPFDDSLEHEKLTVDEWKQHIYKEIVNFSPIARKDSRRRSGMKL

Experiment [2] concerns the target T4, RSK1(Kin.Dom.1-N-terminal) (Homo sapiens, UniProt Q15418).
T4 construct: gene RPS6KA1; Kin.Dom.1-N-terminal

For the next experiment, the target named is T5, NEK3 (Homo sapiens, UniProt P51956).
T5 sequence (P51956 1-506): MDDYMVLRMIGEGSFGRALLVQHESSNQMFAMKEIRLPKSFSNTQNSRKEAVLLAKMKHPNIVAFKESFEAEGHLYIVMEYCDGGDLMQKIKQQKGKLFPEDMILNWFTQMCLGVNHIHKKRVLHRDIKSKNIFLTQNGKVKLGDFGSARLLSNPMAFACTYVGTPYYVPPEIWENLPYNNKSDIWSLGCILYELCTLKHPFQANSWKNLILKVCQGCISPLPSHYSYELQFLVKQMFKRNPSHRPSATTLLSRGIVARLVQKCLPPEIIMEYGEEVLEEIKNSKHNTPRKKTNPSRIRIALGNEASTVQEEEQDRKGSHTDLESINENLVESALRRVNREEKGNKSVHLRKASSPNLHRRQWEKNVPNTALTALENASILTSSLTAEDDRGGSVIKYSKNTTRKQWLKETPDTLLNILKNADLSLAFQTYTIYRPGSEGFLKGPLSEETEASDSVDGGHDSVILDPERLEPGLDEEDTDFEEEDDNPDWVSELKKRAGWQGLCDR

Setting [3] is: read-out: Percent control / Tirabrutinib.
[4] abbreviates: read-out: Percent control / Acalabrutinib.
Setting [5] is: read-out: Percent control / Ibrutinib.
Where [6] appears, read: read-out: Percent control / Zanubrutinib.

T4 sequence (Q15418 whole entry): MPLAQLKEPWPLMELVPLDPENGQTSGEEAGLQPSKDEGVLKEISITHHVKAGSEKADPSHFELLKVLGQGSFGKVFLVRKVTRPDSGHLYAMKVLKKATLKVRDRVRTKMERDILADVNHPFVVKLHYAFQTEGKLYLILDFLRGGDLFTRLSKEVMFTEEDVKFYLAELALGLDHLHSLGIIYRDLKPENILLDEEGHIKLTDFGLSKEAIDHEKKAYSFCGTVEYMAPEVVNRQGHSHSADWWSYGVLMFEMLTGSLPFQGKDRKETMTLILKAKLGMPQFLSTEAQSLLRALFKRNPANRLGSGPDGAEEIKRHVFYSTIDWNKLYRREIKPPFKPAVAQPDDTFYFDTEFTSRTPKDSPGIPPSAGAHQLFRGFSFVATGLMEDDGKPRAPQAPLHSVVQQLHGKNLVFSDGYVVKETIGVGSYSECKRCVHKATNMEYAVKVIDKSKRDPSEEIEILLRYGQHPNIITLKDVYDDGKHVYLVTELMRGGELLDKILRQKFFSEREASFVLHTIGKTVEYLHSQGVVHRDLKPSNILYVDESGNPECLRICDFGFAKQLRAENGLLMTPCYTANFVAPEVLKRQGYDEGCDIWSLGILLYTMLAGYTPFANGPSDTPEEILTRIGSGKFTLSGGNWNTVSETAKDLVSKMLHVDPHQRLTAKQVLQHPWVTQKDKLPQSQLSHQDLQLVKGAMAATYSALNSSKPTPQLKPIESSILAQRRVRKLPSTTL
PDGFRA, sequence (P16234 whole entry): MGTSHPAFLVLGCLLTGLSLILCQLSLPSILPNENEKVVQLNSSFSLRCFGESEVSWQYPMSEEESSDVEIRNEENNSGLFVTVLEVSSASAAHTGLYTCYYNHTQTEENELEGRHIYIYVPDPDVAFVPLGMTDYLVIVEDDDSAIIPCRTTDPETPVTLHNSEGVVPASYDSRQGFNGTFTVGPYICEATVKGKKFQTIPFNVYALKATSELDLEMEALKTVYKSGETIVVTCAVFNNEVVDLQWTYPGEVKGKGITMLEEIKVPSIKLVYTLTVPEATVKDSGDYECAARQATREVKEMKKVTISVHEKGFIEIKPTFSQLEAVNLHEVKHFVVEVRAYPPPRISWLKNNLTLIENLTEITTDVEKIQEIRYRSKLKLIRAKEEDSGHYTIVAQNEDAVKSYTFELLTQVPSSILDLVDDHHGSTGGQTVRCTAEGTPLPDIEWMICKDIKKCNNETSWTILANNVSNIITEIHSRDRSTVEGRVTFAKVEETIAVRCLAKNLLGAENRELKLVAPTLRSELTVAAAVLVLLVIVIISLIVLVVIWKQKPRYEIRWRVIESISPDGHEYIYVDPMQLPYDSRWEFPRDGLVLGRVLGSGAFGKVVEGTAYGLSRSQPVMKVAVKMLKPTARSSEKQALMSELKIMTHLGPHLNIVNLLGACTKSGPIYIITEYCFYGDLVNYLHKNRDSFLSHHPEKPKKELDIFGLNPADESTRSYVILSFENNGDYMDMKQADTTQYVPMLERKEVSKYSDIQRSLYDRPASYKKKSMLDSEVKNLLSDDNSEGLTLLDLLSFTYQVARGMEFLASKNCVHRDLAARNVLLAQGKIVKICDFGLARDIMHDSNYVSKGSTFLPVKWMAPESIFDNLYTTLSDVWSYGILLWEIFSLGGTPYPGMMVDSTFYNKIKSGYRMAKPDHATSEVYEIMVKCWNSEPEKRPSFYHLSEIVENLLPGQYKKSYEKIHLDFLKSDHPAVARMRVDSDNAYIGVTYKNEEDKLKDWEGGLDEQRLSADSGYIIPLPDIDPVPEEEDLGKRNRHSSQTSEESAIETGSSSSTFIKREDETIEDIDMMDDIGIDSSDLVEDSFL
ERBB2, sequence (P04626 whole entry): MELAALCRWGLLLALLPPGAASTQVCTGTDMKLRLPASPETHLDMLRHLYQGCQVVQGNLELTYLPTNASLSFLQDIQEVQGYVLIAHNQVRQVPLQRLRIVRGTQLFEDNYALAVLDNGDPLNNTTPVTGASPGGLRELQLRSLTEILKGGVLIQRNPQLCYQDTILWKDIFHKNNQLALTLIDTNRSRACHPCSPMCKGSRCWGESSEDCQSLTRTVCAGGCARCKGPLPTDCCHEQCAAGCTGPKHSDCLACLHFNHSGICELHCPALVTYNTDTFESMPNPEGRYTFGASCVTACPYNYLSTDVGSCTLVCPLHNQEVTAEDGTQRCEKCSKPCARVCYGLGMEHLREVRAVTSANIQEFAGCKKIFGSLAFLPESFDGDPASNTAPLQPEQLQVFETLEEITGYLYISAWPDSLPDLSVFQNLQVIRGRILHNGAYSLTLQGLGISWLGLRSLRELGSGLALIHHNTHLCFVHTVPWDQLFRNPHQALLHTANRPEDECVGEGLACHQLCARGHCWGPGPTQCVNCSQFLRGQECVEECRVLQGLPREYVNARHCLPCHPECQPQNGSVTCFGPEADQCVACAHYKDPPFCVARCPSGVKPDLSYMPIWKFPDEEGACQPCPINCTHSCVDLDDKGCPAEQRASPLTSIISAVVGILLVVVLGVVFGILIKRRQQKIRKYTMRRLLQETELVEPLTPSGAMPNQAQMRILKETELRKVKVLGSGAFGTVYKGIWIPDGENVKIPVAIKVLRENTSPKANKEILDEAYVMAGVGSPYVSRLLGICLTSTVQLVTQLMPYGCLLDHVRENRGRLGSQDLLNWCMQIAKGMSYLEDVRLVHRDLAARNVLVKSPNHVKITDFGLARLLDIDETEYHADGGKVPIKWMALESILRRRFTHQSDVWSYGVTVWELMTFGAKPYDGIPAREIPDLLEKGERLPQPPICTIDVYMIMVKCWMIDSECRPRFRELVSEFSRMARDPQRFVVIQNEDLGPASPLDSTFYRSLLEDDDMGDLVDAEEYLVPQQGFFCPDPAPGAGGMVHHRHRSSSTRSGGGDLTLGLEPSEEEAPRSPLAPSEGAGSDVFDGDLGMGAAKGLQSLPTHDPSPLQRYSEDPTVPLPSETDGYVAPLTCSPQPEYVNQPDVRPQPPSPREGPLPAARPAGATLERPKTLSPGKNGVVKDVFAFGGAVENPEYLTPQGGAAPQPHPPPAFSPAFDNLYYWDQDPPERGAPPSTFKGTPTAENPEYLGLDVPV
PLK3, sequence (Q9H4B4 whole entry): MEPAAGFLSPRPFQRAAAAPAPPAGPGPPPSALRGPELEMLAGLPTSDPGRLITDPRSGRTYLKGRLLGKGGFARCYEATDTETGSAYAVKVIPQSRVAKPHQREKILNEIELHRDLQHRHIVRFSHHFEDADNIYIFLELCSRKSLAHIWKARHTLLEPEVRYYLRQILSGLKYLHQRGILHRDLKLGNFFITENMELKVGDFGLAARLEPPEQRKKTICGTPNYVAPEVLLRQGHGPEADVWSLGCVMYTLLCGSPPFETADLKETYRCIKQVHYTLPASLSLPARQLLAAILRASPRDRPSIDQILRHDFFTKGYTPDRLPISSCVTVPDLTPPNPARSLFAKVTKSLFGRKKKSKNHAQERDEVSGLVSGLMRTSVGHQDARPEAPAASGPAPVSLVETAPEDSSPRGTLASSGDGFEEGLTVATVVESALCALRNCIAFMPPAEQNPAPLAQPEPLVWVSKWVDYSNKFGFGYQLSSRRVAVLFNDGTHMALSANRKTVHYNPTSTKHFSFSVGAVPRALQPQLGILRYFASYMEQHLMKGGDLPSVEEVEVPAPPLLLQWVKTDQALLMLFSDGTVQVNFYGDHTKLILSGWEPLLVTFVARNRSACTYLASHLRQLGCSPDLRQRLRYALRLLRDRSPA
LIMK1, sequence (P53667 whole entry): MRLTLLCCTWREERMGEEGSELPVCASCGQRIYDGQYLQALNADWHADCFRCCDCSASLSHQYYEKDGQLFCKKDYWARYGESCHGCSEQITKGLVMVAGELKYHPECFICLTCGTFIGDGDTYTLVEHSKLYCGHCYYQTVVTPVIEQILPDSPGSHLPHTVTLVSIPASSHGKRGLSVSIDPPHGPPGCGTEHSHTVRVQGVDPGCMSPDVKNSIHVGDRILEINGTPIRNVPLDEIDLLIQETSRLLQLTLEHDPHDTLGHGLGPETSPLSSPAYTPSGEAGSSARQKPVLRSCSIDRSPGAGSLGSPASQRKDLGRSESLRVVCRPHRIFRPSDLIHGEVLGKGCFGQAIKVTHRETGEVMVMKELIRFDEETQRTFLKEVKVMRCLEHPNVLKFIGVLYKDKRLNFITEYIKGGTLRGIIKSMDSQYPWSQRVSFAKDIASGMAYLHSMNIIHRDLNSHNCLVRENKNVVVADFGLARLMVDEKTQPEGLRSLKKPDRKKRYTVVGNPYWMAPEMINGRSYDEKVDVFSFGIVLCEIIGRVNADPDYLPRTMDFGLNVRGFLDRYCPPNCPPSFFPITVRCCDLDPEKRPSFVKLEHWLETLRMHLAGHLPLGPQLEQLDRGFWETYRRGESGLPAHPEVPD

Regarding `CC#CC(=O)N1CC[C@@H](n2c(=O)n(-c3ccc(Oc4ccccc4)cc3)c3c(N)ncnc32)C1` [Tirabrutinib], the remaining binding at 0.3 µM at ERBB2 (setting [3]) came out at 36%; on PDGFRA (setting [3]) it was 95%; on LZK (setting [3]), 63%; in [1] (setting [3]), 92%; at p38-delta (setting [3]), 94%.

`CC#CC(=O)N1CCC[C@H]1c1nc(-c2ccc(C(=O)Nc3ccccn3)cc2)c2c(N)nccn12` [Acalabrutinib]: the remaining binding at 0.3 µM was found to be 11% at ERBB2 (setting [4]); 79% in [2] (setting [4]); 85% on LZK (setting [4]); 95% on NEK3 (setting [4]); 95% in [1] (setting [4]); 91% on PLK3 (setting [4]). The remaining binding at 0.3 µM at LIMK1 (setting [4]) is 47%; on p38-delta (setting [4]), 95%.

As to `C=CC(=O)N1CCC[C@@H](n2nc(-c3ccc(Oc4ccccc4)cc3)c3c(N)ncnc32)C1` [Ibrutinib], the remaining binding at 0.3 µM on PDGFRA (setting [5]) was 96%; in [2] (setting [5]) it was 98%; on LZK (setting [5]), 79%; at NEK3 (setting [5]), 99%; at PLK3 (setting [5]) it was 94%; at LIMK1 (setting [5]), 57%.

Regarding `C=CC(=O)N1CCC([C@@H]2CCNc3c(C(N)=O)c(-c4ccc(Oc5ccccc5)cc4)nn32)CC1` [Zanubrutinib], the remaining binding at 0.3 µM on ERBB2 (setting [6]) stood at 16%; at PDGFRA (setting [6]) it was 100%; in experiment [2] (setting [6]), 74%; at LZK (setting [6]), 93%; on NEK3 (setting [6]) it was 100%; in experiment [1] (setting [6]), 72%. Further, the remaining binding at 0.3 µM on PLK3 (setting [6]) turned out to be 94%; on LIMK1 (setting [6]), 100%; at p38-delta (setting [6]), 100%.
